From patent publication US20100256207A1, “AMORPHOUS OLMESARTAN MEDOXOMIL” (priority 2007, published 2010)
“Also recorded” adds a separate entry of the source.

Experiments:
[1] = cited from earlier work
[2] = Thermo-Gravimetric Analysis (TGA): water content / hygroscopicity; type: physicochemical
Experimental: The powder obtained by the process according to the invention as described above and in the following examples was also subjected to Thermo-Gravimetric Analysis (TGA).
The water content was determined by weight loss in the TGA data at 25-105° C.
The TGA analysis data was obtained using a Mettler-Toledo TGA851e apparatus under the following parameters:
(§1) Temperature profile: 25-300° C.@5° C./min
(§2) Nitrogen purge gas, 50 ml/min
(§3) Aluminium pan, […], pierced prior to scan

[3] = type: physicochemical
Experimental: The powder obtained by the process according to the invention as described above and in the following examples was also subjected to Differential Scanning Calorimetry (DSC). It will be apparent to one skilled in the art that the exothermic event at 100-140° C. is a heating-induced recrystallisation of the amorphous form to the crystalline prior art form. This is confirmed by XRPD data and confirms that the chemical entity of the initial amorphous material does represent olmesartan medoxomil. Further, it also confirms that the amorphous olmesartan medoxomil according to the above described embodiments of the invention is sufficiently kinetically stable or metastable, as no conversion to other polymorphic forms occurs below 100° C.
The DSC thermal analysis data was obtained using a Mettler-Toledo DSC821e apparatus under the following parameters:
as §1, §2, §3

In the case of `CCCc1nc(C(C)(C)O)c(C(=O)OCc2oc(=O)oc2C)n1Cc1ccc(-c2ccccc2-c2nnn[nH]2)cc1` [Olmesartan medoxomil, 2,3-dihydroxy-2-butenyl 4-(1-hydroxy-1-methylethyl)-2-propyl-1-[p-(o-tetrazol-5-yl-phenyl)benzyl]imidazole-5-carboxylate cyclic 2,3-carbonate], the aqueous solubility [1] is listed as “very low”.

In the case of `CCCc1nc(C(C)(C)O)c(C(=O)OCc2oc(=O)oc2C)n1Cc1ccc(-c2ccccc2-c2nnn[nH]2)cc1` [amorphous olmesartan medoxomil, 2,3-dihydroxy-2-butenyl 4-(1-hydroxy-1-methylethyl)-2-propyl-1-[p-(o-tetrazol-5-yl-phenyl)benzyl]imidazole-5-carboxylate cyclic 2,3-carbonate], the hygroscopicity [2] is reported as “surprisingly low hygroscopicity; also recorded: substantially non-hygroscopic”, the water content ([2]; weight loss in the TGA data at 25-105° C.) is reported as “less than 2 % by weight” and the “kinetic stability: temperature below which no conversion to other polymorphic forms occurs” value [3] is reported as no less than 100 °C. The “exothermic event: heating-induced recrystallisation of the amorphous form to the crystalline prior art form” value ([3]; DSC, 25-300° C. at 5° C./min, nitrogen purge, confirmed by XRPD) was 100-140 °C.
